According to patent US7897638B2, “Synthesis of nitrodibenzylfuran chromophore for photodeprotection of organic molecules” (Philadelphia Health & Education Corporation, priority 2005, dated 2011):
Like-named read-outs stand apart in the source and are kept apart here.

Experiments:
[1] = widely used, commercially available caged compounds; cited from earlier work
[2] = Two-photon photolysis; assay type: physicochemical
Method: Two-photon photolysis (2PP) of a solution contains MNI-glutamate (1.4 mM) and NDBF-EGTA (0.1 mM), by raster scanning the solution (256 pulses, 4 ms each, 300 mW).

[3] = known standard; cited from earlier work
[4] = Photochemical properties of caged compounds (Table 1); assay type: physicochemical; details: for ε/M^−1 cm^−1 (extinction coefficient): NDBF chromophore; for ε · φ (efficiency of use of the incident light): product of extinction coefficient and quantum yield
Source text: The extinction coefficient (ε) and the quantum yield (φ) are the two photochemical properties that define the efficiency of a chromophore. The former is an absolute value of a chromophore; the latter depends upon the exact nature of the photolyzed bond, as well as the chromophore itself. The four most widely used caged compounds (ATP, IP3, glutamate, Ca) with the ortho-nitrobenzyl chromophore have ε and φ in the range of 430-970 and 0.14-0.63. The product (ε·φ) for each caged compound defines the efficiency of use of the incident light.

[5] = Quantum yield of photolysis by comparison with MNI-glutamate, HPLC; assay type: physicochemical; details: photolyzed at 350 nm, relative to MNI-glutamate; listed as NDBF Calcium
Source text: Inventors measured the quantum yield of photolysis of NDBF-EGTA by comparison with a known standard, 4-methoxy-7-nitroindolinyl(MNI)-glutamate (Matsuzaki, et al., 1999). A solution containing NDBF-EGTA and MNI-glutamate was photolyzed at 350 nm, in order to determine the relative % photolysis of the two caged compounds. The concentrations of the two compounds were set so that their chromophores would absorb the same amount of light (MNI/NDBF ratio 3.7:1), and so that the total optical density was 0.4. Under these conditions the same number of excited states are created simultaneously for both cages, making determination of the quantum for NBDF-EGTA more reliable. As a control, both cages were photolyzed separately to check that there was no interference from simultaneous photolysis. Inosine was also included in the photolysis reaction mixture, as a photochemically inert standard. MNI-glutamate has a quantum yield of photolysis of 0.085. […] Saturating [Ca] had no effect on this value.

Row | 2-photon cross-section [2] | Molecule | Rate/s^−1 (rate of release) [1] [s⁻¹] | φ (quantum yield) [1] | quantum yield of photolysis [3] | ε/M^−1 cm^−1 (extinction coefficient) [4] | Rate/s^−1 (rate of release) ([4]; NDBF-caged calcium) | ε · φ (efficiency of use of the incident light) [4] | φ (quantum yield of photolysis) [5]
1 | – | COc1cc(COP(=O)(O)OP(=O)(O)OP(=O)(O)OCC2OC(n3cnc4c(N)ncnc43)C(O)C2O)c([N+](=O)[O-])cc1OC (centres unmarked) [DMNB ATP] | 18 | 0.07 | – | – | – | – | –
2 | – | COc1cc(COP2(=O)OCC3OC(n4cnc5c(N)ncnc54)C(O)C3O2)c([N+](=O)[O-])cc1OC (centres unmarked) [DMNB cAMP] | 300 | 0.05 | – | – | – | – | –
3 | 0.06 GM | COc1ccc([N+](=O)[O-])c2c1CCN2C(=O)CC[C@H](N)C(=O)O [MNI-glutamate, 4-methoxy-7-nitroindolinyl(MNI)-glutamate, reference compound] | – | – | 0.085 | – | – | – | –
4 | at least 0.3 GM | nitrodibenzylfuran [NDBF] | – | – | – | 18,400 M^−1 cm^−1 | – | above 10,000 | –

Row | Molecule | 2-photon cross-section [2] | Rate/s^−1 (rate of release) [1] [s⁻¹] | φ (quantum yield) [1] | quantum yield of photolysis [3] | ε/M^−1 cm^−1 (extinction coefficient) [4] | Rate/s^−1 (rate of release) ([4]; NDBF-caged calcium) | ε · φ (efficiency of use of the incident light) [4] | φ (quantum yield of photolysis) [5]
5 | NDBF-EGTA | 0.3-0.6 GM | – | – | – | 18,400 M^−1 cm^−1 | 25,000 s^−1 | 11,000 | 0.6
